The text below walks through data of patent US20070232527A1, “Medicaments and methods combining a HCV protease inhibitor and an AKR competitor” (priority 2005, published 2007).

The target of series [1] is T1, AKR1C2 (Homo sapiens, UniProt P52895).
T1 sequence (P52895 1-323): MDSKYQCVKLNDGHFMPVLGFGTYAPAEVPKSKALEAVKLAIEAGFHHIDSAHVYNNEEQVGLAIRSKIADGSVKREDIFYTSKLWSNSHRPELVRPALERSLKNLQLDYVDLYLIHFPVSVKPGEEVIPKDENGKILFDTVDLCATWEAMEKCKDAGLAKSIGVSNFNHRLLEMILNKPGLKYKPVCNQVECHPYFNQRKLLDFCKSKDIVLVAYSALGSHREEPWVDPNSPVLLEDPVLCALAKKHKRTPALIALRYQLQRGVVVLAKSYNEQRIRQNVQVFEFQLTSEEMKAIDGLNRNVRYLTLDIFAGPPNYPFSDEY
The conditions noted are these: tibolone as a substrate; cited from earlier work.

Series [2] has as its target T2, AKR1C3 (Homo sapiens, UniProt P42330).
T2 sequence (P42330 1-323): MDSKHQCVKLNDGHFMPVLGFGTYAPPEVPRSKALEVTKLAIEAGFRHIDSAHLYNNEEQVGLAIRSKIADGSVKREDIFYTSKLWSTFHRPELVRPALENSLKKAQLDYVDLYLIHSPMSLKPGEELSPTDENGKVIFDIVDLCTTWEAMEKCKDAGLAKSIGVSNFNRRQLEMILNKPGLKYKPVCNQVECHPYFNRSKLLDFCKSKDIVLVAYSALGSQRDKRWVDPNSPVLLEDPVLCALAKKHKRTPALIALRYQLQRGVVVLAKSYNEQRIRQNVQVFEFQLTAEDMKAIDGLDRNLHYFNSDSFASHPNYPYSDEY
Conditions: tibolone as a substrate; cited from earlier work.

A further series concerns Human liver S9. The series is described as follows: Inhibition of metabolism of 14C-Formula Ia to Formula Ia′ in human liver S9. In kind it is in vitro ADME. Conditions: S9; concentration not given.
The subject of series [3] is human liver cytosol. The series is described as follows: Inhibition of metabolism of 14C-Formula Ia to Formula Ia′ in human liver cytosol.
Method: (§3) All incubations contained 3 mM magnesium chloride and NADPH-generating system in 0.5 mL of 50 mM potassium phosphate buffer, pH 7.4. Prior to the addition of drug, incubation mixtures were preincubated for 2 min at 37° C. […] The incubation mixtures were vortexed and centrifuged (˜10,000 g) at 4° C. for 10 min; supernatants were analyzed by HPLC coupled with radiometric detector. Heat activated S9 cofactor or mitochondria were used as control. For LC-MS analysis, supernatants were concentrated in SpeedVac for 3 hrs. Incubation volumes were 0.5 mL and the final concentration of the organic solvents in the incubation system was less than 1% (v/v).
(§4) The mobile phase consisted of 10 mM ammonium acetate adjusted to pH 7.0 with 1% ammonium hydroxide (A) and 100% methanol (B).
The subject of series [4] is cytosolic enzymes that convert Formula Ia to Formula Ia′. The series can be described thus: in vitro. Conditions: human.
Method: as §3, §4
Series [5] relates to cytosolic enzymes that form the metabolite of Formula Ia. The series can be described thus: in vitro. The conditions noted are these: monkey.
For series [6] the following is noted: in vivo; cited from earlier work.
Series [7] relates to human liver cytosol. The series can be described thus: Incubation of Formula Ia or Formula XXVII in human liver cytosol with AKR competitor (LC-MS, M+2 metabolite). Type of series: in vitro ADME. The procedure:
Prior to the addition of drug, the incubation mixture was preincubated for 2 min at 37° C. […] Human liver microsomes and cytosol without NADPH served as negative controls. Parallel incubations with the compound of Formula Ia were used as positive controls. […] All incubations were performed as described previously for human liver cytosols. […] Parallel incubations with the compound of Formula Ia were used as positive controls.

Series [8] in a line: In vivo inhibition study of Formula Ia with AKR competitor diflunisal, plasma PK. Conditions: cynomolgus monkeys plasma; as a function of diflunisal dose 0, 62.5, 125, 250 mg. The procedure:
An in vivo study was conducted in cynomolgus monkeys where 200 mg Formula Ia and 0 (control), 62.5, 125, or 250 mg diflunisal (Dolobid) was administered as illustrated below. All six monkeys were first dosed with Formula Ia with blood samples collected over a 12 hr period for plasma pharmacokinetics (PK) of Formula Ia prior to administration of diflunisal (dose-escalation). Four doses of diflunisal were subsequently administered every 12 hr with Formula Ia administered at each 4th diflunisal dose after which blood samples were collected for PK assessment of Formula Ia. The following chart summarizes the timing of Formula Ia and diflunisal administration.

The nature of series [9]: Clinical study of the effect of ibuprofen on pharmacokinetics of Formula Ia. The conditions noted are these: human, single 400 mg dose PO fasted, alone or with ibuprofen 600 mg TID; for AUC: plasma, po, 400 mg. In kind it is in vivo. As to the method: The study was conducted in an open-label, randomized, 3-period, 2-sequence crossover manner (FIG. 6). During Period 1, all 12 subjects were administered a single 400 mg dose of Formula Ia. During Periods 2 and 3, subjects received multiple doses of ibuprofen (600 mg TID) in a randomized sequence. The ibuprofen was administered beginning on Day 1 (3 days prior to Formula Ia administration) and continued through Day 6. A single dose of Formula Ia was administered on Day 4 (2 hours after administration of the AM dose of ibuprofen). Plasma samples for pharmacokinetic and metabolite analyses of Formula Ia was collected at predose (0 hour), 0.5, 1, 1.5, 2, 2.5, 3, 4, 5, 6, 7, 8, 9, 10, 12, 24, 36, 48, and 72 hour postdose for each period. (The 48 and 72 hour postdose samples for Period 1 was collected in an outpatient setting). In Periods 2 and 3, additional blood samples were collected immediately prior to dosing of the Formula Ia on Day 4 and two hours post ibuprofen administration on Day 5 for determination of ibuprofen concentration.
Treatment A: Formula Ia (4×100 mg capsules); single dose, PO following an overnight fast, administered on Day 1 or Period 1.
Treatment C: Ibuprofen 600 mg; PO, TID from Day 1 to Day 6 Formula Ia (4×100 mg capsules); single dose, PO following an overnight fast, administered on Day 4 (2 hours after the AM ibuprofen dose).
Subjects received a single dose of Formula Ia on Day 1 of Period 1. In Period 2 and Period 3, subjects were treated for 6 days with ibuprofen and received a single dose of Formula Ia on Day 4 of each period. There were at least 7 days between administration of Formula Ia in Period 1 and Period 2 and at least 14 days between administration of Formula Ia in Period 2 and 3.
The proportion of subjects with plasma concentrations above the in vitro IC50 and IC90 for the HCV replicon at each time point was determined. This plasma concentration data was used to estimate the following primary pharmacokinetic variables for the determination of bioavailability comparisons: • AUC—Area under the plasma concentration-time. • Cmax—Maximum observed plasma concentration. • Tmax—Time to maximum observed plasma concentration. • t1/2—Terminal phase half-life.

Series [10] addresses T1, AKR1C2. The series can be described thus: Incubation with S9 fraction of recombinant human AKR1C2. In kind it is in vitro ADME. More on the design: made in house. Conditions: 20 μM 14C-radiolabeled compound; S9 2.5 mg protein/mL; NADPH. As to the method:
(§1) Recombinant human AKRs (AKR1C2, AKR1C3 and AKR1C4) were grown, sonicated and centrifuged at ˜10,000 g to obtain S9 fractions. Incubations of ^14C-radiolabeled compound of Formula Ia, ^14C-radiolabeled compound of Formula Ib and ^14C-radiolabeled compound of Formula Ic (all at 20 μM) with S9-fractions from three recombinant human AKRs (2.5 mg protein/mL) were conducted as described above. [drawing 161]
(§2) The samples were analyzed by HPLC-coupled with radiometric detector and confirmed by LC-MS.

The target in series [11] is T2, AKR1C3. The series can be described thus: Incubation with S9 fraction of recombinant human AKR1C3. Type of series: in vitro ADME. More on the design: made in house. Conditions: 20 μM 14C-radiolabeled compound; S9 2.5 mg protein/mL; NADPH. The procedure: as §1, §2

Converted amounts (≈) assume the structure as drawn. Like-named read-outs stand apart in the source and are kept apart here.

As a reminder, the IC50 is the concentration at which inhibition is half-maximal. In general, inhibition refers to how much of the control response was suppressed. For orientation: Vdss means a proportionality between amount in the body and measured concentration, not a real space. The Ki is the dissociation constant of the complex between target and ligand, obtained from inhibition or displacement.

As to `CC(CCC(=O)O)C1CCC2C3C(O)CC4CC(O)CCC4(C)C3CCC12C` (stereo not drawn) [5beta-cholanic acid 3alpha, 7-alpha-diol], the results for the IC50 at AKR1C2 [1] and on AKR1C3 [2] were 0.21 µM and 74.4 µM, respectively.
With `O=[N+]([O-])c1ccc(OP(=O)(O)Oc2ccc([N+](=O)[O-])cc2)cc1` [BNPP, bis(4-nitrophenyl)-phosphate], the “inhibited formation of the compound of Formula Ia′” value in the series with Human liver S9 is 57.4%; in the series on human liver cytosol [3] (cytosol, concentration not given) it was 63.4%. Also, the “% Inhibition on Metabolite Formation of Compound Formula Ia” value in the series with human liver cytosol [3] (Table 4, human liver cytosol, inhibitor 1000 μM, 2 hr incubation) is reported as 63.4%.
In series [4] (pH 7.4), `O=C(O)c1cc(-c2ccc(F)cc2F)ccc1O` [Diflunisal] displayed an IC50 at 120 min of 1 µg/mL (≈ 4 µM). Moreover, the inhibition at 2 h, 200 µM in series [4] (pH 7.4, % of Inhibition on Metabolite Formation of Compound Formula Ia) stood at 89.4%. Besides, the IC50 in series [5] is 11 µM. Also, in [6], the Vdss is 0.1 L/kg and the protein binding result is recorded as “about 99%”. The Ki on human liver cytosol [3] (human cytosol, assuming the liver to plasma ratio equals 1) amounted to 0.5 µg/mL.
As to `CC(C)(C)NC(=O)N[C@H](C(=O)N1C[C@H]2[C@@H]([C@H]1C(=O)NC(CC1CCC1)C(=O)C(N)=O)C2(C)C)C(C)(C)C` (stereo partly drawn) [Formula Ia, (1R,5S)—N-[3-Amino-1-(Cyclobutylmethyl)-2,3-Dioxopropyl]-3-[2(S)-[[[(1,1-Dimethylethyl)Amino]Carbonyl]Amino]-3,3-Dimethyl-1-Oxobutyl]-6,6-Dimethyl-3-Azabicyclo[3.1.0]Hexan-2(S)-Carboxamide], the “1ST PARENT PEAK AREA” value with human liver cytosol [7] (HL Cytosol w/ NADPH + 50 uM Mefenamic acid) is on record as 6.19E+07; with human liver cytosol [7] (HL Cytosol w/ NADPH + 100 uM Flufenamic acid) it was 6.33E+07; in the series on human liver cytosol [7] (HL Cytosol w/ NADPH + 100 uM Phenolphthalein) it was 6.23E+07; in the series on human liver cytosol [7] (HL Cytosol w/ NADPH + 200 uM Diflunisal), 6.10E+07; in the series with human liver cytosol [7] (HL Cytosol w/ NADPH Vehicle Control (no inhibitor)) it was 3.95E+07; in the series with human liver cytosol [7] (HL Cytosol w/o NADPH, 20 μM, 60 min), 7.41E+07. In addition, the “AUC ratio (Formula Ia′ to AUC for the compound)” value in [8] is given as “decline”. In addition, the AUC turned out to be 2040 ng·h/mL in series [9] (read-out: AUC(all), Mean (% CV)) and 2070 ng·h/mL in [9] (read-out: AUC(l), Mean (% CV)). The AUC(0-t) in [9] (plasma Formula Ia, read-out: AUC(last), Mean (% CV)) is 2000 ng·h/mL. Besides, the Cmax in series [9] (plasma Formula Ia, read-out: Cmax, Mean (% CV)) came out at 571 ng/mL. Further, the MRT in series [9] (plasma Formula Ia, read-out: MRT(l), Mean (% CV)) was determined as 6.57 h. Besides, in series [9] (plasma Formula Ia, read-out: Tmax (median)), the Tmax worked out at 1.75 h. Further, the half-life in series [9] (plasma Formula Ia, read-out: t1/2, Mean (% CV) (converted)) was 9.11 h. In addition, the “metabolism by recombinant AKR1C2” value on AKR1C2 [10] was “yielded compound of Formula Ia′”. For the same molecule, on AKR1C3 [11], the “metabolism by recombinant AKR1C3” value is “yielded compound of Formula Ia′”.
